Data as given in patent US9512152B2, “Phospholipid compound containing unsaturated fatty acid derivative having cyclopropane ring” (NISHIZAKI BIOINFORMATION RESEARCH INSTITUTE, priority 2013, dated 2016).

Columns and labels:
[1] = test system: STZ-treated C57BL/6J mouse; assay: Oral glucose tolerance test in streptozotocin-treated type 1 diabetes model mouse; assay type: in vivo; settings: oral 1 mg/kg, 4 consecutive days before OGTT and 30 min before glucose, FIG. 11
Method: C57BL/6J mouse (male, 8-week-old) (Japan SLC Inc.; Shizuoka, Japan) was used. Streptozotocin (STZ; 250 mg/kg) or saline as a control was injected intraperitoneally. After 4 days from the injection, an oral glucose tolerance test (OGTT) was performed.

[2] = test system: 3T3L1-GLUT4myc adipocytes having a knocked-down insulin receptor; assay: GLUT4 trafficking in adipocytes with knocked-down insulin receptor; assay type: cell-based; settings: 1 μM, 20 min, absence of insulin, FIG. 12
Method: 3T3L1-GLUT4myc adipocytes were incubated in Krebs-Ringer-HEPES buffer [136 mM NaCl, 4.7 mM KCl, 1.25 mM CaCl2, 1.25 mM MgSO4 and 20 mM HEPES, pH 7.5] containing 0.2% (w/v) bovine serum albumin and added with 10 mM glucose at 37° C. for 1 hr. The cells were incubated in the presence or absence of insulin, phospholipid or a derivative thereof for 20 min. Then, the cells were homogenized by sonication in an ice-cooled mitochondria buffer containing 1% (v/v) protease inhibitor cocktail [210 mM mannitol, 70 mM sucrose, and 1 mM ethylenediaminetetraacetic acid (EDTA), 10 mM HEPES, pH 7.5]. Sequentially, the homogenate was centrifuged at 4° C. for 5 min at 3,000 rpm. The supernatant was further centrifuged at 4° C. for 15 min at 11,000 rpm. The recovered supernatant was ultracentrifuged at 4° C. for 60 min at 100,000 g, and separated into a cytoplasm fraction and a cellular membrane fraction. […] The protein concentration of each fraction was measured using BCA protein assay kit (Thermo Fisher Scientific, Waltham, Mass., USA). […] The immunoreactivity was detected using ECL kit (Invitrogen), and visualized using a chemical luminescence detection system (chemiluminescence detection system; GE Healthcare, Piscataway, N.J., USA). The signal density was measured using an image analysis software (Image Gauge software; GE Healthcare). […]

PKCι = biological target: T1, PKCι (Homo sapiens, UniProt P41743); assay: Cell-free PKC assay; assay type: biochemical; settings: 100 μM, FIG. 6
T1 sequence (P41743 1-596): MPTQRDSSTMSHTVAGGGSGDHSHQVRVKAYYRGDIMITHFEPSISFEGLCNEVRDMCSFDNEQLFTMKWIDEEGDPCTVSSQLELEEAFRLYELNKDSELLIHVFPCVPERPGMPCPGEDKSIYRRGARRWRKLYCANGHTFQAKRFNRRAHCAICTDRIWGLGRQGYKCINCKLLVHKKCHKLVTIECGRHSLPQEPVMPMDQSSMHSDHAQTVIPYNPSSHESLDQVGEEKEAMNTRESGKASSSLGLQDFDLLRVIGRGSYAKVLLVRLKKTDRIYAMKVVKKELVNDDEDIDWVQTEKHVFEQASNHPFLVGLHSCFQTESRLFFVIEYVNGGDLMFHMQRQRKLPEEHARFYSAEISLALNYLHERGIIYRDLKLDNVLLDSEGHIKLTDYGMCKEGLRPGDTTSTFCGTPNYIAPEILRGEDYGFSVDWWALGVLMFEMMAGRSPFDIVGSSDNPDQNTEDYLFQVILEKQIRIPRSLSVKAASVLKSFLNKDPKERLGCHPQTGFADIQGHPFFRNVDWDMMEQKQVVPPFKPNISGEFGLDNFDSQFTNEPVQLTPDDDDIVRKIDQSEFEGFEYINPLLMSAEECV
Method: (§1) PKC activity in a cell-free system was quantified by the method described in a previous report (Kanno T et al. J Lipid Res 2006; 47: 1146-1156). In short, synthesized PKC substrate peptide (10 μM) was reacted with various PKC isozymes in a medium containing 20 mM Tris-HCl (pH 7.5), 5 mM magnesium acetate, 10 μM ATP, and DCP-LA-phospholipid in the absence of phosphatidylserine and diacylglycerol at 30° C. for 5 min. A Ca^2+-free medium was used for novel PKC such as PKC-δ, -ε and the like, and a 100 μM CaCl2-containing medium was used for other PKC isozymes. They were loaded on reversed-phase HPLC (LC-10ATvp, Shimadzu Co., Kyoto, Japan), and the peaks of substrate peptide and new resultant products were measured at an absorbance of 214 nm. The areas of non-phosphorylated PKC substrate peptide and phosphorylated PKC substrate peptide were measured (total area corresponds to the concentration of PKC substrate peptide used in this Example), and the amount of the phosphorylated substrate peptide was calculated. The amount of the phosphorylated substrate peptide (pmol/1 min) per 1 min was used as an index of the PKC activity.

PKC isozymes = assay: Cell-free PKC assay; assay type: biochemical; settings: 100 μM, FIG. 5
Method: as §1

PKCζ = biological target: T2, PKCζ (Homo sapiens, UniProt Q05513); assay: Cell-free PKC assay; assay type: biochemical; settings: 100 μM, FIG. 6
T2 sequence (Q05513 1-592): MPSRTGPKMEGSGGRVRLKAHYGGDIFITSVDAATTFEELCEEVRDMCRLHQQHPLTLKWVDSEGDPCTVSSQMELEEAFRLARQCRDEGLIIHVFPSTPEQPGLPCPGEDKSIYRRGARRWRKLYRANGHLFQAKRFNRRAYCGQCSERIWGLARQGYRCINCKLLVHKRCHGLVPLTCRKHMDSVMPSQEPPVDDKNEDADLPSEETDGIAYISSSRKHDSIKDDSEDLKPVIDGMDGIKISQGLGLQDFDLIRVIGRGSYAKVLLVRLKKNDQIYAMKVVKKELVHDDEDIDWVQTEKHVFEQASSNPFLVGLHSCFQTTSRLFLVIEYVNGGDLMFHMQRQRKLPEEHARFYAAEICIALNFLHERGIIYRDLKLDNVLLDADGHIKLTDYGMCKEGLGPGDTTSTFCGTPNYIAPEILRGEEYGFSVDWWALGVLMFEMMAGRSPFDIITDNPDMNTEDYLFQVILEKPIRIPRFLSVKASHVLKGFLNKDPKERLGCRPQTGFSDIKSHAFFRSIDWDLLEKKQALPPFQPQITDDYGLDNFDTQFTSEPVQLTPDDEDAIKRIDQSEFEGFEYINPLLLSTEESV
Method: as §1

`CCCCCC1CC1CC1CC1CCCCCCCC(=O)OC[C@H](COP(=O)(O)OCCN)OC(=O)CCCCCCCC1CC1CC1CC1CCCCC` (some centres unmarked) [diDCP-LA-PE, 1,2-o-bis-[8-{2-(2-pentyl-cyclopropylmethyl)-cyclopropyl}-octanoyl]-sn-glycero-3-phosphatidylethanolamine] was tested, and the “Suppression of increase in blood glucose” value [1] was “significantly suppresses an increase in the blood glucose”, the “Transfer of GLUT4 to cellular membrane, insulin receptor knock-down” value [2] was “can promote transfer of GLUT4 to a cellular membrane in an insulin receptor independent manner” and the “PKCι activation, specificity” value (PKCι) was “specific activating agent of PKCι and PKCζ”. For the same molecule, the “PKC activation, all PKC isozymes” value (PKC isozymes) was “activates all PKC isozymes” and the “PKCζ activation, specificity” value (PKCζ) was “specific activating agent of PKCι and PKCζ”.
